Consider five compounds from article PMC9785777, “Antidiabetic Potential of Novel 1,3,5-Trisubstituted-2-Thioxoimidazloidin-4-One Analogues: Insights into α-Glucosidase, α-Amylase, and Antioxidant Activities” (Pharmaceuticals, 2022).

The target of data set [1] is T1, α-glucosidase enzyme (EC3.2.1.20) (Saccharomyces cerevisiae, UniProt P53341).
T1 construct: purchased Sigma-Aldrich
Nature of the data set: biochemical. As to conditions: for inhibition at 1 µg/mL / inhibition at 10 µg/mL / inhibition at 100 µg/mL / inhibition at 1000 µg/mL: read-out: % inhibition of α-glucosidase. The text has this:
The α-glucosidase enzyme is mainly expressed in the small intestine and catalyzes the breakdown of carbohydrates into glucose units by cleaving the glucosidic bonds. α-Glucosidase blockers are the first-line drugs for the treatment of non-insulin-dependent DM by suppressing carbohydrate hydrolysis and consequently retarding glucose absorption into the bloodstream and reducing postprandial hyperglycemia. α-Glucosidase is, thus, considered to be an attractive pharmaceutical target for the treatment of […] via control of the blood glucose levels. Accordingly, there is a continuous need to develop a potential class of α-glucosidase inhibitors. Toward this aim, we explored the potency of the synthesized compounds to inhibit the activity of α-glucosidase. We examined the inhibitory activity of the synthesized compounds following the reported assay by Peytam et al.. Thus, the compounds at different concentrations (1000, 100, 10, and 1 µg/mL) were incubated with α-glucosidase and subsequently […] was added and the absorbance was monitored at 405 nm. […] To further investigate the structural aspects of 1,3-thiohydantoin scaffold, a substitution at the N1-position with the methyl-proponate group was performed. […] Nevertheless, it has adverse gastrointestinal effects including diarrhea and flatulence. Thus, the discovery of a novel class of potent antidiabetic agents is urgently demanded.
An ELISA reader was used to assess the inhibition of α-glucosidase by 1,3,5-trisubstituted-2-thioxoimidazolidin-4-ones derivatives at various doses (1000, 100, 10, and 1 µg/mL) according to Peytam et al.. […] Then, the substrate (25 µL, 4 mM) was added to the mentioned mixture and allowed to incubate at 37 °C for 20 min. Finally, the change in absorbance at 405 nm was monitored using a Cytation 3 hybrid microplate reader (BioTek, Winooski, VT, USA). […] GraphPad prism 6.0 was used to calculate the IC50 values of the investigated compounds from the nonlinear regression curve (Systat Software, Inc. Tools for Science) (https://www.graphpad.com/scientific-software/prism/ (accessed on 1 September 2022)).

Data set [2] is described as follows: DPPH free radical scavenging assay. The text has this:
The antioxidant capability of compounds 5a and 7a was estimated utilizing the DPPH (2,2-diphenyl-1- picrylhydrazyl) scavenging assay to assess the free radical scavenger activity. DPPH is a stable free radical substrate with a purple color which upon reaction with an antioxidant compound, converts into 1,1-diphenyl-2-picryl hydrazine, a […] compound. The DPPH assay is widely applied for the investigation of superoxide radical scavenging activity. In this regard, compounds 5a and 7a were incubated at different concentrations (3.12, 6.25, 12.5, 25, 50, 100, and 200 µg/mL) with DPPH substrate and the absorption was assessed by ELISA at 510 nm. In our investigations, Trolox, a water-soluble analogue of vitamin E, was applied as a standard antioxidant reference drug. […] Further, Qamar et al. synthesized and evaluated the antioxidant activity of some novel N3-substituted-2-thiohydantoins.
According to Valko et al., the ELISA approach was used to analyze the free-radical DPPH scavenging activity of compounds (5a and 7a) at different concentrations (3.12, 6.25, 12.5, 25, 50, 100, and 200 µg/mL). The DPPH assay assesses the hydrogen-donating activity and thus provides an evaluation of the antioxidant activity via estimating the DPPH free-radical scavenging activity. The color intensity of the reaction mixture was measured after a purple-colored stable free radical (DPPH) was reduced into the yellow-colored diphenylpicryl hydrazinem. Briefly, 200 µL of different concentrations of compounds 5a and 7a were mixed with 50 µL of DPPH (0.659 mM) solution, and the mixture was incubated at 25 °C for 20 min. The absorbance of the reaction mixture was estimated after incubation at 510 nm. In our investigations, trolox was employed as standard reference drug. A control reaction was performed, and the inhibitory efficiency of DPPH radical-scavenging activity was determined using the equation below: % Inhibition = (A0 − A1)/A0 × 100 (1) where A0 is absorbance of […] and A1 is the absorbance of the compound.
For orientation: The DPPH test is a chemical assay of radical scavenging.

T1 sequence (P53341 whole entry): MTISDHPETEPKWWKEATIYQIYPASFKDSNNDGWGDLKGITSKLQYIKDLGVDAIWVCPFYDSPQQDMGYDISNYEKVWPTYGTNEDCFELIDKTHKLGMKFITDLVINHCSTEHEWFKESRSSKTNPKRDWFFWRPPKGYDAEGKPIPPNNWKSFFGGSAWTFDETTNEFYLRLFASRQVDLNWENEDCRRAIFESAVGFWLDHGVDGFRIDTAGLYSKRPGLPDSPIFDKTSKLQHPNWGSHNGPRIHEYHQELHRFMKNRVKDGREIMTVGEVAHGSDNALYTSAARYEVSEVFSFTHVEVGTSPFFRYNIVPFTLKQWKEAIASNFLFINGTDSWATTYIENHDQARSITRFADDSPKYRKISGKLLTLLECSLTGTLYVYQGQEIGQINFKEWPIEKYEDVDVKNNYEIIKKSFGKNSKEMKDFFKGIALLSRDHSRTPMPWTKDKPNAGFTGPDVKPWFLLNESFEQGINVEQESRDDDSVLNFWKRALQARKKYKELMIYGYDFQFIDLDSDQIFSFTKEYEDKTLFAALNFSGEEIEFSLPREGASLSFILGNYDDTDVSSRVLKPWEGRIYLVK

The term melting point denotes the temperature of the solid-liquid transition. As a reminder, the IC50 is the midpoint of a concentration-inhibition curve. Read a low IC50 as greater potency. Usually inhibition stands for the relative decrease from the control value, in per cent. As to `C/C(=N\N1C(=O)/C(=C/c2ccccc2O)NC1=S)c1ccccc1O` [Compound 4a, 5-(2-Hydroxybenzylidene)-3-(2-hydroxyphenylethylidene)-amino-2-thioxoimidazolidin-4-one], the melting point worked out at 256 °C. In data set [1], it took 57.1 µM to reach half-maximal inhibition (IC50), the inhibition at 1 µg/mL came out at 24.5%, the inhibition at 10 µg/mL amounted to 44.9% and the inhibition at 100 µg/mL came to 62.6%. The inhibition at 1000 µg/mL in data set [1] is 83.1%.

As to `C/C(=N\N1C(=O)/C(=C/c2cc(Br)ccc2O)NC1=S)c1ccccc1O` [Compound 4b, 5-(5-Bromo-2-hydroxybenzylidene)-3-(2-hydroxyphenylethylidene)-amino-2-thioxoimidazolidin-4-ones], the melting point is 263 °C. In data set [1], the IC50 is around 72.4 µM, the inhibition at 1 µg/mL was 20.4%, the inhibition at 10 µg/mL stood at 36.4% and the inhibition at 100 µg/mL turned out to be 58.9%. The inhibition at 1000 µg/mL in data set [1] worked out at 84.7%.

Compound `COC(=O)CCN1C(=S)N(/N=C(\C)c2ccccc2O)C(=O)/C1=C/c1cc(Br)ccc1O` [Compound 5b, Methyl [5-(5-Bromo-2-hydroxybenzylidene)-4-oxo-3-(2-hydroxyphenylethylidene)amino-2-thioxoimidazolidin-1-yl] propionate] had a melting point of 192 °C. In data set [1], the midpoint of inhibition, the IC50, lay at 21.3 µM; the inhibition at 1 µg/mL is 27.6%; the inhibition at 10 µg/mL is 50.3%; the inhibition at 100 µg/mL is 71.4%. Further, the inhibition at 1000 µg/mL in data set [1] was found to be 87.4%.

With `COC(=O)CCN1C(=S)N(/N=C(\C)c2ccccc2O)C(=O)/C1=C/c1cc(Br)ccc1OC(C)=O` [Compound 7b, Methyl [5-(5-bromo-2-acetoxybenzylidene)-4-oxo-3-(2-hydroxyphenylethylidene)amino-2-thioxoimidazolidin-1-yl] propionate], the melting point is 172 °C. In data set [1], 21.8 µM corresponded to half-maximal inhibition (IC50), the inhibition at 1 µg/mL stood at 28%, the inhibition at 10 µg/mL amounted to 47.8% and the inhibition at 100 µg/mL was determined as 70.4%. The inhibition at 1000 µg/mL in data set [1] came to 86.5%.

Consider `Cc1c(C)c2c(c(C)c1O)CCC(C)(C(=O)O)O2` (centres unmarked) [Trolox, reference compound], for which the “%RSA (DPPH radical scavenging activity)” value was 11.3811% in data set [2] (3.12 µg/mL); 20.2046% in data set [2] (6.25 µg/mL); 32.4808% in data set [2] (12.5 µg/mL); 47.4425% in data set [2] (25 µg/mL); 63.2992% in data set [2] (50 µg/mL); 82.6087% in data set [2] (100 µg/mL). For the same compound, the “%RSA (DPPH radical scavenging activity)” value in data set [2] (200 µg/mL) is on record as 89.0026%. Moreover, the “DPPH free radical scavenging IC50” value in data set [2] (n = 4) is on record as 58.09 µg/mL.
